ChEMBL document CHEMBL1144931, “Synthesis, characterization, and biological properties of 8-azido- and 8-amino-substituted 2',5'-oligoadenylates” (J Med Chem, 2003)
pIC50: −log10 of the molar value.

Assays:
[1] = biological target: T1, 2-5A-dependent ribonuclease (Mus musculus, UniProt Q05921); assay: Displacement of [125I]-labeled 2-5A from 2-5A dependent Ribonuclease L (RNase L) of mouse liver
T1 sequence (Q05921 whole entry): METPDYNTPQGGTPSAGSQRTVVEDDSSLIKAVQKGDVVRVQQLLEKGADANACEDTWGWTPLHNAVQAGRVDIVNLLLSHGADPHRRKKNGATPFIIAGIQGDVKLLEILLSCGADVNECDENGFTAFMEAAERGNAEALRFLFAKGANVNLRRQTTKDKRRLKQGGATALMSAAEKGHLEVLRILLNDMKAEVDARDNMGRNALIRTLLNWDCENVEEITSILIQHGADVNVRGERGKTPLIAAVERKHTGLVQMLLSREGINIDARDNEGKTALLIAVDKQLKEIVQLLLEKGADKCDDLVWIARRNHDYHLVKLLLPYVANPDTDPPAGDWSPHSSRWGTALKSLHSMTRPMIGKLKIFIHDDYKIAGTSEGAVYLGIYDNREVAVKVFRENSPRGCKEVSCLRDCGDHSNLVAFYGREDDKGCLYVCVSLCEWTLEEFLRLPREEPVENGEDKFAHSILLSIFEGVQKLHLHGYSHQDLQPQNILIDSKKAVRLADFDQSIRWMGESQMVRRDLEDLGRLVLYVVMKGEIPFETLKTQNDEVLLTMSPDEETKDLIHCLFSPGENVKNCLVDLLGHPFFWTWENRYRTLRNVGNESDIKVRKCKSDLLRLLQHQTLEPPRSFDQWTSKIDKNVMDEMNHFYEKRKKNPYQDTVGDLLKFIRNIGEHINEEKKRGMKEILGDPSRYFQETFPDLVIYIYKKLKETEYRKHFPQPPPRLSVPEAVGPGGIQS

[2] = biological target: T2, 2-5A-dependent ribonuclease (Mus musculus) (UniProt Q05921); assay: Relative displacement of [125I]-labeled 2-5A from Ribonuclease L of mouse liver compared to pApApA
T2 sequence (whole entry): T1 sequence (Q05921 whole entry)

| Structure (SMILES) | pIC50 [1] | Relative activity [2] |
| --- | --- | --- |
| Nc1ncnc2c1nc(N)n2[C@@H]1O[C@H](COP(=O)(O)O[C@@H]2[C@H](O)[C@@H](COP(=O)(O)O[C@@H]3[C@H](O)[C@@H](COP(=O)(O)O)O[C@H]3n3c(N)nc4c(N)ncnc43)O[C@H]2n2c(N)nc3c(N)ncnc32)[C@@H](O)[C@H]1O | < 5.00 | < 0.0004 |
| [N-]=[N+]=Nc1nc2c(N)ncnc2n1C1O[C@H](COP(=O)(O)O[C@H]2C(n3c(N=[N+]=[N-])nc4c(N)ncnc43)O[C@H](CO)[C@H]2O)[C@@H](O)[C@H]1O (stereo partly specified) | < 5.00 | < 0.0004 |
| [N-]=[N+]=Nc1nc2c(N)ncnc2n1C1OC(COP(=O)(O)O)C(O)C1OP(=O)(O)OCC1OC(n2c(N=[N+]=[N-])nc3c(N)ncnc32)C(OP(=O)(O)OC[C@H]2OC(n3c(N=[N+]=[N-])nc4c(N)ncnc43)[C@H](O)[C@@H]2O)C1O (stereo partly specified) | 8.70 | 2 |
| Nc1ncnc2c1nc(N)n2[C@@H]1O[C@H](COP(=O)(O)O[C@@H]2[C@H](O)[C@@H](COP(=O)(O)O[C@@H]3[C@H](O)[C@@H](CO)O[C@H]3n3c(N)nc4c(N)ncnc43)O[C@H]2n2c(N)nc3c(N)ncnc32)[C@@H](O)[C@H]1O | < 5.00 | < 0.0004 |
| Nc1ncnc2c1nc(N)n2C1O[C@H](COP(=O)(O)O[C@H]2C(n3c(N)nc4c(N)ncnc43)O[C@H](COP(=O)(O)O)[C@H]2O)[C@@H](O)[C@H]1O (stereo partly specified) | < 5.00 | < 0.0004 |
| [N-]=[N+]=Nc1nc2c(N)ncnc2n1C1O[C@H](COP(=O)(O)O[C@H]2C(n3c(N=[N+]=[N-])nc4c(N)ncnc43)O[C@H](COP(=O)(O)O)[C@H]2O)[C@@H](O)[C@H]1O (stereo partly specified) | 5.30 | 0.0008 |
| Nc1ncnc2c1ncn2[C@@H]1O[C@H](CO[P@](=O)(O)O[C@@H]2[C@H](O)[C@@H](CO[P@](=O)(O)O[C@@H]3[C@H](O)[C@@H](CO[P@](=O)(O)O[P@@](=O)(O)OP(=O)(O)O)O[C@H]3n3cnc4c(N)ncnc43)O[C@H]2n2cnc3c(N)ncnc32)[C@@H](O)[C@H]1O | 8.52 |  |
| Nc1ncnc2c1ncn2[C@@H]1O[C@H](COP(=O)(O)O[C@@H]2[C@H](O)[C@@H](COP(=O)(O)O[C@@H]3[C@H](O)[C@@H](COP(=O)(O)OP(=O)(O)OP(=O)(O)O)O[C@H]3n3cnc4c(N)ncnc43)O[C@H]2n2cnc3c(N)ncnc32)[C@@H](O)[C@H]1O |  | 1.3 |
| [N-]=[N+]=Nc1nc2c(N)ncnc2n1C1O[C@H](COP(=O)(O)O[C@H]2C(n3c(N=[N+]=[N-])nc4c(N)ncnc43)OC(COP(=O)(O)O[C@H]3C(n4c(N=[N+]=[N-])nc5c(N)ncnc54)O[C@H](CO)[C@H]3O)[C@H]2O)[C@@H](O)[C@H]1O (stereo partly specified) | 7.15 | 0.6 |
| [N-]=[N+]=Nc1nc2c(N)ncnc2n1[C@@H]1O[C@H](COP(=O)(O)O[C@@H]2[C@H](O)[C@@H](COP(=O)(O)O[C@@H]3[C@H](O)[C@@H](COP(=O)(O)O[C@@H]4[C@H](O)[C@@H](COP(=O)(O)O)O[C@H]4n4c(N=[N+]=[N-])nc5c(N)ncnc54)O[C@H]3n3c(N=[N+]=[N-])nc4c(N)ncnc43)O[C@H]2n2c(N=[N+]=[N-])nc3c(N)ncnc32)[C@@H](O)[C@H]1O | 8.70 | 2 |
| Nc1ncnc2c1nc(N)n2C1O[C@H](COP(=O)(O)O[C@H]2C(n3c(N)nc4c(N)ncnc43)O[C@H](COP(=O)(O)O[C@H]3C(n4c(N)nc5c(N)ncnc54)O[C@H](COP(=O)(O)O[C@H]4C(n5c(N)nc6c(N)ncnc65)O[C@H](COP(=O)(O)O)[C@H]4O)[C@H]3O)[C@H]2O)[C@@H](O)[C@H]1O (stereo partly specified) | 6.30 | 0.008 |
| Nc1ncnc2c1nc(N)n2C1O[C@H](COP(=O)(O)O[C@H]2C(n3c(N)nc4c(N)ncnc43)O[C@H](CO)[C@H]2O)[C@@H](O)[C@H]1O (stereo partly specified) | < 5.00 | < 0.0004 |
| Nc1ncnc2c1nc(N)n2[C@@H]1O[C@H](COP(=O)(O)O[C@@H]2[C@H](O)[C@@H](COP(=O)(O)O[C@@H]3[C@H](O)[C@@H](COP(=O)(O)O[C@@H]4[C@H](O)[C@@H](CO)O[C@H]4n4c(N)nc5c(N)ncnc54)O[C@H]3n3c(N)nc4c(N)ncnc43)O[C@H]2n2c(N)nc3c(N)ncnc32)[C@@H](O)[C@H]1O | 6.00 | 0.004 |
| [N-]=[N+]=Nc1nc2c(N)ncnc2n1[C@@H]1O[C@H](COP(=O)(O)O[C@@H]2[C@H](O)[C@@H](COP(=O)(O)O[C@@H]3[C@H](O)[C@@H](COP(=O)(O)O[C@@H]4[C@H](O)[C@@H](CO)O[C@H]4n4c(N=[N+]=[N-])nc5c(N)ncnc54)O[C@H]3n3c(N=[N+]=[N-])nc4c(N)ncnc43)O[C@H]2n2c(N=[N+]=[N-])nc3c(N)ncnc32)[C@@H](O)[C@H]1O | 7.30 | 0.8 |
